# In ChEMBL document CHEMBL1141417, “2,6,8-trisubstituted 1-deazapurines as adenosine receptor antagonists” (J Med Chem, 2007):
# Legend:
# [1] = molecular target: T1, Adenosine receptor A1 (Homo sapiens) (UniProt P30542); test: Activity at human adenosine A1 receptor expressed in CHO cells assessed as effect on forskolin-stimulated cAMP production at 100 nM; format: functional, cell-based
# T1 sequence (whole entry): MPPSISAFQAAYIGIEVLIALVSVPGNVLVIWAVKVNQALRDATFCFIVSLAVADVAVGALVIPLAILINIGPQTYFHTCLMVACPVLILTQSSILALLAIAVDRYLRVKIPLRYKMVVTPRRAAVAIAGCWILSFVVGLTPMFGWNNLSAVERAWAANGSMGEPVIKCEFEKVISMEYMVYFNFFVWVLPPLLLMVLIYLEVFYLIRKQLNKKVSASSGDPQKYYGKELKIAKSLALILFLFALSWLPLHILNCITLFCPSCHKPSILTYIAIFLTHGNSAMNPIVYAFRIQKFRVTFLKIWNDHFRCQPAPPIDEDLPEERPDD
# [2] = molecular target: T2, Adenosine receptor A3 (Homo sapiens, UniProt P0DMS8); test: Displacement of [125I]AB-MECA from human adenosine A3 receptor expressed in CHO cells; format: cell-based
# T2 sequence (P0DMS8 whole entry): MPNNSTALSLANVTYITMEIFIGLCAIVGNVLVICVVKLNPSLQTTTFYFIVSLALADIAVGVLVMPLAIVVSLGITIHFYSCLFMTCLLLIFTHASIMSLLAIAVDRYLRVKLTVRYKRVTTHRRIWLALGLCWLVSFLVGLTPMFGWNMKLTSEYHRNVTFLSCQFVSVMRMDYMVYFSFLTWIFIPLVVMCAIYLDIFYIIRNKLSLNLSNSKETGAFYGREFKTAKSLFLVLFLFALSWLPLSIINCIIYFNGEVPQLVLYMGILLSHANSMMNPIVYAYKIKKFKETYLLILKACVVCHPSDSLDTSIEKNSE
# [3] = molecular target: T1, Adenosine receptor A1 (Homo sapiens); test: Activity at human adenosine A1 receptor in CHO cells assessed as effect on CPA induced inhibition of forskolin-stimulated cAMP production at 1 uM; format: functional, cell-based; conditions: filed as antagonist
# [4] = molecular target: Adenosine receptors; A1 & A2a (Homo sapiens) (UniProt P30542+P29274); test: Selectivity for human adenosine A1 receptor over human adenosine A2A receptor; format: protein assay
# [5] = molecular target: T3, Adenosine receptor A2a (Homo sapiens, UniProt P29274); test: Displacement of [3H]ZM241385 from human adenosine A2A receptor expressed in CHO cells at 1 uM; format: cell-based
# [6] = molecular target: T3, Adenosine receptor A2a; test: Displacement of [3H]ZM-241385 from human adenosine A2A receptor expressed in CHO cells; format: cell-based
# [7] = molecular target: T4, Adenosine receptor A1 (Homo sapiens, UniProt P30542); test: Displacement of [3H]DPCPX from human adenosine A1 receptor expressed in CHO cells; format: cell-based
# T4 sequence (P30542 whole entry): T1 sequence (whole entry)
# [8] = molecular target: T1, Adenosine receptor A1 (Homo sapiens); test: Activity at human adenosine A1 receptor expressed in CHO cells assessed as effect on forskolin-stimulated cAMP production at 100 uM; format: functional, cell-based; conditions: filed as inverse agonist
# [9] = molecular target: T5, Adenosine receptor A3 (Homo sapiens) (UniProt P0DMS8); test: Displacement of [125I]AB-MECA from human adenosine A3 receptor expressed in CHO cells at 1 uM; format: cell-based
# T5 sequence (whole entry): T2 sequence (P0DMS8 whole entry)
# [10] = molecular target: Adenosine receptors; A1 & A3 (Homo sapiens) (UniProt P30542+P0DMS8); test: Selectivity for human adenosine A1 receptor over human adenosine A3 receptor; format: protein assay
# [11] = molecular target: T4, Adenosine receptor A1; test: Activity at human adenosine A1 receptor in CHO cells assessed as effect on CPA induced inhibition of forskolin-stimulated cAMP production; format: functional, cell-based
# [12] = molecular target: T1, Adenosine receptor A1 (Homo sapiens); test: Displacement of [3H]DPCPX from human adenosine A1 receptor expressed in CHO cells at 1 uM; format: cell-based
# T3 sequence (P29274 whole entry): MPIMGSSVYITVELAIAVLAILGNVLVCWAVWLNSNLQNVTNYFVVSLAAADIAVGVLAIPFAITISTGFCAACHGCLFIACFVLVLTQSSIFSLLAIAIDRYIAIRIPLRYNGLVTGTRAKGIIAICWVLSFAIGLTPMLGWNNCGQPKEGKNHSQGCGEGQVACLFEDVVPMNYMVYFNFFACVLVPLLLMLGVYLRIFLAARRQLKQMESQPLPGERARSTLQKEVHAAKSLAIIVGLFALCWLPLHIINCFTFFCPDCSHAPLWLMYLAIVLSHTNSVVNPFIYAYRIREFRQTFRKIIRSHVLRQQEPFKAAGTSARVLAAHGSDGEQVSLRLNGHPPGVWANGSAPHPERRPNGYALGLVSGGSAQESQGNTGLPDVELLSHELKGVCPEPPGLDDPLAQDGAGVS
# Chain of Adenosine receptors; A1 & A2a (Homo sapiens) (P29274 whole entry, looked up, one chain of several): as the sequence (P29274 whole entry) above
SMILES,Activity ([1]; filed as inverse agonist),Ki [2],Activity [3],Ratio Ki [4],Ki [6],Ki [7],further results
c1ccc(-c2cc(-c3ccccc3)c3nc(C4CCCC4)[nH]c3n2)cc1,Inverse agonist,6.9 nM (antagonist),Antagonist,> 1600,–,–,inhibition [5]: 49%
OC[C@H]1O[C@@H](n2cnc3c(NC4CCCC4)ncnc32)[C@H](O)[C@@H]1O,–,–,–,–,–,–,Activity ([1]; filed as agonist): Agonist
O=c1[nH]c2nc(-c3ccccc3)cc(-c3ccccc3)c2[nH]1,–,262 nM (antagonist),–,–,192 nM (antagonist),8.6 nM (antagonist),–
CC(C)c1nc2c(-c3ccccc3)cc(-c3ccccc3)nc2[nH]1,Inverse agonist,7.3 nM (antagonist),Antagonist,377,230 nM (antagonist),–,–
Cn1cnc2c(NC3CCCC3)ncnc21,–,–,–,–,–,–,Activity [8]: Inverse agonist
CCCc1nc2c(-c3ccccc3)cc(-c3ccccc3)nc2[nH]1,–,69 nM (antagonist),–,–,114 nM (antagonist),2.5 nM (antagonist),–
CCc1nc2c(C)cc(C)nc2[nH]1,–,–,–,–,–,101 nM (antagonist),inhibition [9]: 49%; inhibition [5]: 8%
CCc1nc2c(-c3ccccc3)cc(-c3ccccc3)nc2[nH]1,–,8.5 nM (antagonist),–,–,177 nM (antagonist),2.4 nM (antagonist),–
CC(C)(C)c1nc2c(-c3ccccc3)cc(-c3ccccc3)nc2[nH]1,–,115 nM (antagonist),–,–,1050 nM,5.5 nM (antagonist),–
CCC(CC)c1nc2c(-c3ccccc3)cc(-c3ccccc3)nc2[nH]1,Inverse agonist,171 nM (antagonist),Antagonist,–,247 nM (antagonist),0.87 nM (antagonist),Ratio Ki [10]: 199
CC(C)Cc1nc2c(-c3ccccc3)cc(-c3ccccc3)nc2[nH]1,Inverse agonist,25 nM (antagonist),Antagonist,> 300,189 nM (antagonist),0.55 nM (antagonist),Ratio Ki [10]: 45
c1ccc(-c2cc(-c3ccccc3)c3nc(C4CCCCC4)[nH]c3n2)cc1,Inverse agonist,637 nM (antagonist),Antagonist,215,194 nM (antagonist),–,Ratio Ki [10]: 718; IC50 [11]: 1700 nM (antagonist)
c1ccc(-c2cc(-c3ccccc3)c3nc[nH]c3n2)cc1,–,180 nM (antagonist),–,33,39 nM (antagonist),1.2 nM (antagonist),–
c1ccc(Cn2cnc3c(-c4ccccc4)cc(-c4ccccc4)nc32)cc1,–,–,–,–,–,–,inhibition [12]: 38%; inhibition [9]: 15%; inhibition [5]: 2%
Cc1nc2c(-c3ccccc3)cc(-c3ccccc3)nc2[nH]1,–,61 nM (antagonist),–,–,375 nM (antagonist),–,–
c1cnc2[nH]c(C3CCCC3)nc2c1,–,–,–,–,–,–,inhibition [12]: 6%; inhibition [9]: 0%; inhibition [5]: 3%
